Laboratory results: PMC8492656, “Machine learning-guided acyl-ACP reductase engineering for improved in vivo fatty alcohol production” (Nature Communications, 2021)

Target: T1, MA-ACR (parent A, A-AAAAAAAA) (Marinobacter nauticus, UniProt A1U3L3)
T1 construct: gene Maqu_2507; full-length two-domain enzyme (N-terminal AHR, C-terminal ATR), pET28, E. coli host, purified by the same method as His-tagged E. coli ACP; reported elsewhere as tetrameric
T1 sequence (A1U3L3 1-661): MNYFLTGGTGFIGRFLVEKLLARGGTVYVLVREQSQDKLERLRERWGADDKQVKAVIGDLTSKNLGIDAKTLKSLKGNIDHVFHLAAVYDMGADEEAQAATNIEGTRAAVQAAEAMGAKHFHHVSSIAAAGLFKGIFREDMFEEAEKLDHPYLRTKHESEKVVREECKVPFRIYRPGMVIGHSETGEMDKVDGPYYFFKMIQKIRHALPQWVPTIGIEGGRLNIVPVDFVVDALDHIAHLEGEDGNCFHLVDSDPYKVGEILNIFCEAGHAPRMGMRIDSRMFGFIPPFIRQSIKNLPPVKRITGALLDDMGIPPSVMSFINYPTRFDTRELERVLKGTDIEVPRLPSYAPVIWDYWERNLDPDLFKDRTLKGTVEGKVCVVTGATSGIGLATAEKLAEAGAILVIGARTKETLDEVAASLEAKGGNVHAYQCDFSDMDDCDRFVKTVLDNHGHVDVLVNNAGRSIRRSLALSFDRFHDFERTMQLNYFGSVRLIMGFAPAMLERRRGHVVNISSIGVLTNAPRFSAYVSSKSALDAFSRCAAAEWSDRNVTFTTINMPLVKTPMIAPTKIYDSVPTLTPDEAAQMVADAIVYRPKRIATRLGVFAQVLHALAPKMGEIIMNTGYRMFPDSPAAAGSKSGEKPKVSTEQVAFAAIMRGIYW
Assay: DTNB release assay, A412, 96-well plate
Assay type: biochemical
Conditions: 200 µM NADPH, 1 µM enzyme, 250-252 µM DTNB, 20 mM Tris, 50 mM NaCl, pH 7

Compound: CCCCCCCCCCCCCCCC(=O)SCCNC(=O)CCNC(=O)[C@H](O)C(C)(C)COP(=O)(O)OP(=O)(O)OC[C@H]1O[C@@H](n2cnc3c(N)ncnc32)[C@H](O)[C@@H]1OP(=O)(O)O [palmitoyl-CoA]
- DTNB release assay, A412, 96-well plate: ATR-83 has a lower activity than the parents on palmitoyl-CoA
